The values below come from US20090155345A1, “METHODS FOR AFFECTING LIPOSOME COMPOSITION ULTRASOUND IRRADIATION” (BEN GURION UNIVERSITY OF THE NEGEV RESEARCH AND DEVELOPMENT …, priority 2005, published 2009).

Where a name gives a salt, the structure may show the parent alone.

The conditions of data set [1]: cited from earlier work.
Data set [2] in a line: Chemical integrity of LFUS-irradiated drugs and lipids (HPLC, NMR, TLC). Format: physicochemical. As to conditions: 20 kHz, 3.3 W/cm^2, 30 to 180 s; HPLC (doxorubicin, MPS), NMR (cisplatin).
Protocol: Thin layer gel chromatography (TLC) was used to determine if any chemical changes were induced in the liposome lipids by exposure to ultrasonic irradiation.
MPS concentration and chemical integrity were determined using HPLC (Hewlett Packard Liquid Chromatograph 1090). ChemStation software (Hewlett Packard) controlled all modules and was used for analysis of the chromatography data. The analytical column used was a C18 5-micron Econosphere, length 150 mm, inner diameter 4.6 mm (Alltech, Carnforth, UK). Sample injection volume was 20 μL. Eluent was monitored at a wavelength of 245 nm with a 10 nm bandwidth.
Experiments were performed on an INOVA 500-MHz spectrometer (Varian, Palo Alto, Calif.) using standard pulse sequences. The Pt chemical shifts were assigned relative to the external reference signal of K2PtCl4, set at −1,624 ppm.

Consider `C[C@H]1C[C@@H]2[C@H]([C@@H](O)C[C@@]3(C)[C@H]2CC[C@]3(O)C(=O)COC(=O)CCC(=O)O)[C@@]2(C)C=CC(=O)C=C12` [MPS, Methylprednisolone hemisuccinate sodium salt], for which the pKa in data set [1] is on record as 4.65.
Consider `N.N.[Cl][Pt][Cl]` [cisplatin, Cisplatin], for which the “chemical changes of drug after LFUS” value in data set [2] was “does not induce any chemical changes”.
Same read-out and setting: to `COc1cccc2c1C(=O)c1c(O)c3c(c(O)c1C2=O)C[C@@](O)(C(=O)CO)C[C@@H]3O[C@H]1C[C@H](N)[C@H](O)[C@H](C)O1` [doxorubicin, Doxorubicin-HCl] belongs “does not induce any chemical changes”.

One may read the pKa as the negative logarithm of the acid dissociation constant.
